In patent publication US10889556B2, “Compositions and methods for inhibiting influenza RNA polymerase PA endonuclease” (The Regents of the University of California, priority 2016, dated 2021) one finds IC50 and LE data, which are given here for 28 compounds.

The target in the first test is influenza PA endonuclease (Influenza A virus, UniProt C3W5S0). Briefly: biochemical.
Conditions: not given
More on the design: species or system Pandemic H1N1 influenza A.
`O=C(O)c1ccc(-c2cc(=O)c(O)c(C(=O)O)[nH]2)cc1` [compound 144, 6-(4-carboxyphenyl)-3-hydroxy-4-oxo-1,4-dihydropyridine-2-carboxylic acid] came in with a half-maximal inhibitory concentration (IC50) of 1.6 nM.

With `CNC(=O)c1occc(=O)c1O` [A11], half-maximal inhibition (IC50) required 4100 nM.

`Cc1cc(O)c(=O)c(O)cc1-c1ccccc1` [compound 213, 2,7-Dihydroxy-4-methyl-5-phenylcyclohepta-2,4,6-trien-1-one] yielded a half-inhibitory concentration (IC50) of 5 nM.

`O=C(O)c1[nH]c(-c2ccccc2)cc(=O)c1O` [compound 142, 3-Hydroxy-4-oxo-6-phenyl-1,4-dihydropyridine-2-carboxylic acid] returned an IC50 of 5.6 nM.

In turn, `O=c1cc(CNCc2ccccc2)occ1O` [Compound 26, 2-((Benzylamino)methyl)-5-hydroxy-4H-pyran-4-one] displayed an IC50 of 2700 ± 400 nM.

Take `O=C(O)c1ccc(O)c(O)c1` [Compound 107]: 220 nM corresponded to half-maximal inhibition (IC50) and the LE is 0.83.

`Cc1c(O)c(=O)ccn1-c1ccccc1` [Compound 45, 3-Hydroxy-2-methyl-1-phenylpyridin-4(1H)-one]: half-maximal inhibition (IC50) required 18000 ± 2000 nM.

Compound `CC(C)c1cccc(=O)c(O)c1` [E4] had an IC50 of 11000 nM.

`CCOC(=O)c1c(C)n(-c2ccc(Oc3ccccc3)cc2)cc(O)c1=O` [compound 68, Ethyl 5-hydroxy-2-methyl-4-oxo-1-(4-phenoxyphenyl)-, 4-dihydropyridine-3-carboxylate] returned an IC50 of 5200 ± 800 nM.

As to `O=c1cccccc1O` [compound 201], the midpoint of inhibition, the IC50, lay at 8800 nM.

Compound `CCOC(=O)c1c(C)n(-c2ccccc2)cc(O)c1=O` [compound 67, Ethyl 5-hydroxy-2-methyl-4-oxo-1-phenyl-1,4-dihydropyridine-3-carboxylate] came in with a concentration for half-maximal inhibition (IC50) of 5300 ± 400 nM.

In turn, `O=C(O)c1cccc(-c2cc(=O)c(O)c(C(=O)O)[nH]2)c1` [compound 145, 6-(3-carboxyphenyl)-3-hydroxy-4-oxo-1,4-dihydropyridine-2-carboxylic acid] had a half-inhibitory concentration (IC50) of 2 nM.

`COc1cc(C)c(C(=O)O)cc(O)c1=O` [Compound 105] had an IC50 of 180 nM and an LE of 0.66.

`O=C(O)c1[nH]c(-c2ccc(Oc3ccccc3)cc2)cc(=O)c1O` [compound 143, 3-Hydroxy-4-oxo-6-(4-phenoxyphenyl)-1,4-dihydropyridine-2-carboxylic acid] displayed an IC50 of 22 nM.

On to `O=C(O)c1[nH]c(-c2ccc(-c3nnn[nH]3)cc2)cc(=O)c1O` [compound 148, 6-(4-(1H-tetrazol-5-yl)phenyl)-3-hydroxy-4-oxo-1,4-dihydropyridine-2-carboxylic acid], for which the 50% inhibitory concentration (IC50) amounted to 1.9 nM.

`CNC(=O)c1[nH]ccc(=O)c1O` [B4] came in with an IC50 of 13000 nM. This IC50 is about 6800-fold higher than that of the compound before.

On to `Cc1cccc(-c2cc(=O)c(O)c(C(=O)O)[nH]2)c1` [compound 146, 3-hydroxy-4-oxo-6-(m-tolyl)-1,4-dihydropyridine-2-carboxylic acid], for which the 50% inhibitory concentration (IC50) was 4.8 nM.

In turn, `O=c1cc[nH]c(-c2ncco2)c1O` [compound 151] came in with a 50% inhibitory concentration (IC50) of 71 nM.

`Cc1c(O)c(=O)ccn1C1CCCCC1` [Compound 48, 1-Cyclohexyl-3-hydroxy-2-methylpyridin-4(1H)-one]: the IC50 amounted to 14000 ± 3000 nM.

In turn, `CN(Cc1cc(=O)c(O)co1)c1ccncc1` [Compound 41, 5-Hydroxy-2-((methyl(pyridin-4-yl)amino)methyl)-4H-pyran-4-one] showed an IC50 greater than 100000 nM.

As to `CN(Cc1cc(=O)c(O)co1)c1ccc(F)cc1` [Compound 39, 2-(((4-Fluorophenyl)(methyl)amino)methyl)-5-hydroxy-4H-pyran-4-one], the half-maximal inhibitory concentration (IC50) came to 1800 ± 200 nM.

As for `Cc1cc(=O)c(O)cn1C1CCOCC1` [Compound 51], the IC50 came to 730 ± 70 nM.

Take `CN(Cc1cc(=O)c(O)co1)c1cccc(F)c1` [Compound 40, 2-(((3-Fluorophenyl)(methyl)amino)methyl)-5-hydroxy-4H-pyran-4-one]: half-maximal inhibition (IC50) required 3200 ± 100 nM.

In turn, `CS(=O)(=O)NCc1cc(=O)c(O)co1` [Compound 30] yielded an IC50 of 4800 ± 700 nM. Against the preceding compound, the IC50 is about 1.5-fold higher.

Consider `Cc1occ(O)c(=O)c1C(=O)NCCc1ccccc1` [Compound 13, 5-Hydroxy-2-methyl-4-oxo-N-phenethyl-4H-pyran-3-carboxamide], for which the half-inhibitory concentration (IC50) was determined as 11300 ± 1200 nM. Compared with the last compound, the IC50 is about 2.4-fold higher.

Consider `O=c1cc(Br)[nH]c(-c2nnn[nH]2)c1O` [compound 133, 6-Bromo-3-hydroxy-2-(1H-tetrazol-5-yl)pyridin-4(1H)-one], for which the IC50 was 63 nM.

`COc1cccc(CNC(=O)c2c(C)occ(O)c2=O)c1` [Compound 18, 5-Hydroxy-N-(3-methoxybenzyl)-2-methyl-4-oxo-4H-pyran-3-carboxamide] returned an IC50 of 22100 ± 600 nM.

The test is the same for the next values; noted with them: IC50 value.
Turning to `O=C(O)c1[nH]c(Br)cc(=O)c1O` [compound 131, 6-Bromo-3-hydroxy-4-oxo-1,4-dihydropyridine-2-carboxylic acid], half-maximal inhibition (IC50) required 25 nM.

What is called IC50 is the concentration at which inhibition is half-maximal. A higher IC50 goes with weaker potency.
